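Assay format: 96-well plates, 48-hour exposure. Here, GI50 denotes the concentration required for 50% inhibition of growth. The concentration for full growth arrest is given as TGI.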
Assays:
Test in all cases: NCI tumour cell line growth inhibition, 48 h
SF-268 CNS = test system: SF-268 CNS
NCI-H522 lung = test system: NCI-H522 lung
K-562 leukemia = test system: K-562 leukemia
OVCAR-5 ovarian = test system: OVCAR-5 ovarian
CCRF-CEM leukemia = test system: CCRF-CEM leukemia
UACC-257 melanoma = test system: UACC-257 melanoma
SN12C renal = test system: SN12C renal
SF-539 CNS = test system: SF-539 CNS
A549 NSCLC = test system: A549 NSCLC
HCT-116 colon = test system: HCT-116 colon
IGROV1 ovarian = test system: IGROV1 ovarian
HCC-2998 colon = test system: HCC-2998 colon
M14 melanoma = test system: M14 melanoma
SW-620 colon = test system: SW-620 colon
CAKI-1 renal = test system: CAKI-1 renal
BT-549 breast = test system: BT-549 breast
RXF 393 renal = test system: RXF 393 renal
T-47D breast = test system: T-47D breast
COLO 205 colon = test system: COLO 205 colon
MDA-MB-231 breast = test system: MDA-MB-231 breast
SR leukemia = test system: SR leukemia
UO-31 renal = test system: UO-31 renal
OVCAR-4 ovarian = test system: OVCAR-4 ovarian
KM12 colon = test system: KM12 colon
U251 CNS = test system: U251 CNS
UACC-62 melanoma = test system: UACC-62 melanoma
ACHN renal = test system: ACHN renal
MCF7 breast = test system: MCF7 breast
SF-295 CNS = test system: SF-295 CNS
PC-3 prostate = test system: PC-3 prostate
HL-60(TB) leukemia = test system: HL-60(TB) leukemia
NCI/ADR-RES ovarian = test system: NCI/ADR-RES ovarian
HOP-92 NSCLC = test system: HOP-92 NSCLC
NCI-H23 lung = test system: NCI-H23 lung
SK-MEL-5 melanoma = test system: SK-MEL-5 melanoma
A498 renal = test system: A498 renal
HOP-62 NSCLC = test system: HOP-62 NSCLC
MDA-MB-435 = test system: MDA-MB-435
SK-MEL-28 melanoma = test system: SK-MEL-28 melanoma
MOLT-4 leukemia = test system: MOLT-4 leukemia
SNB-75 CNS = test system: SNB-75 CNS
DU-145 prostate = test system: DU-145 prostate
HCT-15 colon = test system: HCT-15 colon
HT29 colon = test system: HT29 colon
SNB-19 CNS = test system: SNB-19 CNS
786-0 renal = test system: 786-0 renal
OVCAR-3 ovarian = test system: OVCAR-3 ovarian
TK-10 renal = test system: TK-10 renal
LOX IMVI melanoma = test system: LOX IMVI melanoma
SK-MEL-2 melanoma = test system: SK-MEL-2 melanoma
SK-OV-3 ovarian = test system: SK-OV-3 ovarian
RPMI-8226 leukemia = test system: RPMI-8226 leukemia
NCI-H460 lung = test system: NCI-H460 lung
HS 578T breast = test system: HS 578T breast
MALME-3M melanoma = test system: MALME-3M melanoma
OVCAR-8 ovarian = test system: OVCAR-8 ovarian
NCI-H226 lung = test system: NCI-H226 lung
EKVX NSCLC = test system: EKVX NSCLC

## O=C1/C(=C/c2ccc([N+](=O)[O-])o2)Oc2ccc(Cl)cc21
SF-268 CNS
  GI50: 1840 nM
  TGI: 3.77 µM
NCI-H522 lung
  GI50: 1310 nM
  TGI: 2790 nM
K-562 leukemia
  GI50: 438 nM
  TGI: 2170 nM
OVCAR-5 ovarian
  GI50: 2630 nM
  TGI: 7.5 µM
CCRF-CEM leukemia
  GI50: 429 nM
  TGI: 2240 nM
UACC-257 melanoma
  GI50: 1850 nM
  TGI: 4.12 µM
SN12C renal
  GI50: 2.2 µM
  TGI: 5.67 µM
SF-539 CNS
  GI50: 1.82 µM
  TGI: 3.97 µM
A549 NSCLC
  GI50: 6.45 µM
  TGI: 59.1 µM
HCT-116 colon
  GI50: 648 nM
  TGI: 2010 nM
IGROV1 ovarian
  GI50: 1920 nM
  TGI: 4.5 µM
HCC-2998 colon
  GI50: 2180 nM
  TGI: 4.56 µM
M14 melanoma
  GI50: 2010 nM
  TGI: 4.93 µM
SW-620 colon
  GI50: 541 nM
  TGI: 1990 nM
CAKI-1 renal
  GI50: 1700 nM
  TGI: 3.61 µM
BT-549 breast
  GI50: 1670 nM
  TGI: 3.32 µM
RXF 393 renal
  GI50: 1.65 µM
  TGI: 3.6 µM
T-47D breast
  GI50: 1.67 µM
  TGI: 5.02 µM
COLO 205 colon
  GI50: 1890 nM
  TGI: 4.08 µM
MDA-MB-231 breast
  GI50: 1.77 µM
  TGI: 4.12 µM
SR leukemia
  GI50: 0.267 µM
  TGI: 1260 nM
UO-31 renal
  GI50: 1350 nM
  TGI: 3.87 µM
OVCAR-4 ovarian
  GI50: 1.9 µM
  TGI: 3.68 µM
KM12 colon
  GI50: 1880 nM
  TGI: 3.68 µM
U251 CNS
  GI50: 2020 nM
  TGI: 4.52 µM
UACC-62 melanoma
  GI50: 1580 nM
  TGI: 3.41 µM
ACHN renal
  GI50: 1.54 µM
  TGI: 2980 nM
MCF7 breast
  GI50: 1.42 µM
  TGI: 3.92 µM
SF-295 CNS
  GI50: 11.5 µM
  TGI: 49.1 µM
PC-3 prostate
  GI50: 1920 nM
  TGI: 5.08 µM
HL-60(TB) leukemia
  GI50: 2080 nM
  TGI: 18.3 µM
NCI/ADR-RES ovarian
  GI50: 3.36 µM
  TGI: > 100 µM
HOP-92 NSCLC
  GI50: 1.45 µM
  TGI: 3.31 µM
NCI-H23 lung
  GI50: 2110 nM
  TGI: 5.07 µM
SK-MEL-5 melanoma
  GI50: 1580 nM
  TGI: 3.03 µM
A498 renal
  GI50: 14.4 µM
  TGI: 34 µM
HOP-62 NSCLC
  GI50: 4.53 µM
  TGI: 23.9 µM
MDA-MB-435
  GI50: 1990 nM
  TGI: 4.5 µM
SK-MEL-28 melanoma
  GI50: 1710 nM
  TGI: 3.38 µM
MOLT-4 leukemia
  GI50: 2050 nM
  TGI: 6.73 µM
SNB-75 CNS
  GI50: 1.6 µM
  TGI: 5.44 µM
DU-145 prostate
  GI50: 2250 nM
  TGI: 4.88 µM
HCT-15 colon
  GI50: 537 nM
  TGI: 2050 nM
HT29 colon
  GI50: 1870 nM
  TGI: 3.98 µM
SNB-19 CNS
  GI50: 3.94 µM
  TGI: 16.7 µM
786-0 renal
  GI50: 2720 nM
  TGI: 7.06 µM
OVCAR-3 ovarian
  GI50: 1700 nM
  TGI: 3.19 µM
TK-10 renal
  GI50: 2.14 µM
  TGI: 3.85 µM
LOX IMVI melanoma
  GI50: 1590 nM
  TGI: 3.19 µM
SK-MEL-2 melanoma
  GI50: 1930 nM
  TGI: 3.83 µM
SK-OV-3 ovarian
  GI50: 13 µM
  TGI: 47.2 µM
RPMI-8226 leukemia
  GI50: 1370 nM
  TGI: 4.72 µM
NCI-H460 lung
  GI50: 3000 nM
  TGI: 15.4 µM
HS 578T breast
  GI50: 2.95 µM
  TGI: > 27.6 µM
MALME-3M melanoma
  GI50: 2.1 µM
  TGI: 4.47 µM
OVCAR-8 ovarian
  GI50: 2060 nM
  TGI: > 22.1 µM
NCI-H226 lung
  GI50: 1780 nM
  TGI: 3.97 µM

## COc1ccc2c(c1)/C(=N/OC(C)=O)c1c-2c(OC)nc2ccccc12
SF-268 CNS
  GI50: > 100000 nM
  TGI: > 100 µM
NCI-H522 lung
  GI50: > 100000 nM
  TGI: > 100000 nM
K-562 leukemia
  GI50: > 100000 nM
  TGI: > 100000 nM
OVCAR-5 ovarian
  GI50: > 100000 nM
  TGI: > 100 µM
CCRF-CEM leukemia
  GI50: > 100000 nM
  TGI: > 100000 nM
UACC-257 melanoma
  GI50: > 100000 nM
  TGI: > 100 µM
SN12C renal
  GI50: 59.9 µM
  TGI: > 100 µM
SF-539 CNS
  GI50: 72.9 µM
  TGI: > 100 µM
A549 NSCLC
  GI50: > 100 µM
  TGI: > 100 µM
HCT-116 colon
  GI50: > 100000 nM
  TGI: > 100000 nM
HCC-2998 colon
  GI50: > 100000 nM
  TGI: > 100 µM
M14 melanoma
  GI50: > 100000 nM
  TGI: > 100 µM
SW-620 colon
  GI50: > 100000 nM
  TGI: > 100000 nM
CAKI-1 renal
  GI50: > 100000 nM
  TGI: > 100 µM
BT-549 breast
  GI50: > 100000 nM
  TGI: > 100 µM
RXF 393 renal
  GI50: 77.7 µM
  TGI: > 100 µM
T-47D breast
  GI50: 27.7 µM
  TGI: > 100 µM
COLO 205 colon
  GI50: > 100000 nM
  TGI: > 100 µM
MDA-MB-231 breast
  GI50: 35 µM
  TGI: > 100 µM
SR leukemia
  GI50: 21.6 µM
  TGI: > 100000 nM
UO-31 renal
  GI50: > 100000 nM
  TGI: > 100 µM
OVCAR-4 ovarian
  GI50: 58.3 µM
  TGI: > 100 µM
KM12 colon
  GI50: > 100000 nM
  TGI: > 100 µM
U251 CNS
  GI50: > 100000 nM
  TGI: > 100 µM
UACC-62 melanoma
  GI50: > 100000 nM
  TGI: > 100 µM
ACHN renal
  GI50: 86.4 µM
  TGI: > 100000 nM
MCF7 breast
  GI50: 88.3 µM
  TGI: > 100 µM
SF-295 CNS
  GI50: > 100 µM
  TGI: > 100 µM
PC-3 prostate
  GI50: > 100000 nM
  TGI: > 100 µM
HL-60(TB) leukemia
  GI50: > 100000 nM
  TGI: > 100 µM
NCI/ADR-RES ovarian
  GI50: > 100 µM
  TGI: > 100 µM
HOP-92 NSCLC
  GI50: 22.5 µM
  TGI: 82.3 µM
NCI-H23 lung
  GI50: > 100000 nM
  TGI: > 100 µM
SK-MEL-5 melanoma
  GI50: > 100000 nM
  TGI: > 100 µM
A498 renal
  GI50: > 100 µM
  TGI: > 100 µM
HOP-62 NSCLC
  GI50: 83.7 µM
  TGI: > 100 µM
MDA-MB-435
  GI50: > 100000 nM
  TGI: > 100 µM
SK-MEL-28 melanoma
  GI50: > 100000 nM
  TGI: > 100 µM
MOLT-4 leukemia
  GI50: > 100000 nM
  TGI: > 100 µM
SNB-75 CNS
  GI50: 18 µM
  TGI: > 100 µM
DU-145 prostate
  GI50: > 100000 nM
  TGI: > 100 µM
HCT-15 colon
  GI50: > 100000 nM
  TGI: > 100000 nM
HT29 colon
  GI50: > 100000 nM
  TGI: > 100 µM
SNB-19 CNS
  GI50: > 100 µM
  TGI: > 100 µM
786-0 renal
  GI50: > 100000 nM
  TGI: > 100 µM
OVCAR-3 ovarian
  GI50: > 100000 nM
  TGI: > 100 µM
TK-10 renal
  GI50: 79.1 µM
  TGI: > 100 µM
LOX IMVI melanoma
  GI50: > 100000 nM
  TGI: > 100 µM
SK-MEL-2 melanoma
  GI50: > 100000 nM
  TGI: > 100 µM
SK-OV-3 ovarian
  GI50: 48.1 µM
  TGI: > 100 µM
RPMI-8226 leukemia
  GI50: > 100000 nM
  TGI: > 100 µM
NCI-H460 lung
  GI50: > 100000 nM
  TGI: > 100 µM
HS 578T breast
  GI50: 48.1 µM
  TGI: > 100 µM
MALME-3M melanoma
  GI50: 57.3 µM
  TGI: > 100 µM
OVCAR-8 ovarian
  GI50: > 100000 nM
  TGI: > 100 µM
EKVX NSCLC
  GI50: > 100 µM
  TGI: > 100 µM
NCI-H226 lung
  GI50: > 100000 nM
  TGI: > 100 µM
